Measurements reported in ChEMBL document CHEMBL1201862, “PubChem BioAssay data set” (2004).
Active and inactive are the calls of the source.

Assays:
[1] = target: Ras and Rab interactor 1/Tyrosine-protein kinase ABL1 (Homo sapiens, UniProt P00519+Q13671); assay type: functional;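 further: biochemical TR-FRET dose-response test measuring inhibition of binding between Rin1 and Abl proteins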
[2] = target: T1, Corticotropin-releasing factor receptor 2/Corticotropin-releasing factor-binding protein (Homo sapiens, UniProt P24387+Q13324); experiment: Dose Response confirmation of uHTS hits for small molecule antagonists of the CRF-binding protein and CRF-R2 receptor complex.; assay type: functional; conditions: read-out: IC50_Mean
T1 sequence (Q13324 whole entry): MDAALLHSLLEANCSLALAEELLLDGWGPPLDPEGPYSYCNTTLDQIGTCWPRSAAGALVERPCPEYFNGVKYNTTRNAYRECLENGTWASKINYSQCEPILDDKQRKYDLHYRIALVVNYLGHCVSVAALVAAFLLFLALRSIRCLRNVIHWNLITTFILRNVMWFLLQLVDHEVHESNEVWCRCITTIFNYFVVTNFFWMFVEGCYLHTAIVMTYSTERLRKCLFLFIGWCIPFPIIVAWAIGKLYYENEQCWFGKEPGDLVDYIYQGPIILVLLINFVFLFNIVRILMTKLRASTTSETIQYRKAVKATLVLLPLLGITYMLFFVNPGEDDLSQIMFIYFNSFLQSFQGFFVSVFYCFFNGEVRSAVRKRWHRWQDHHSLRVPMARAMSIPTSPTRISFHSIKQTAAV
T1 sequence (P24387 whole entry): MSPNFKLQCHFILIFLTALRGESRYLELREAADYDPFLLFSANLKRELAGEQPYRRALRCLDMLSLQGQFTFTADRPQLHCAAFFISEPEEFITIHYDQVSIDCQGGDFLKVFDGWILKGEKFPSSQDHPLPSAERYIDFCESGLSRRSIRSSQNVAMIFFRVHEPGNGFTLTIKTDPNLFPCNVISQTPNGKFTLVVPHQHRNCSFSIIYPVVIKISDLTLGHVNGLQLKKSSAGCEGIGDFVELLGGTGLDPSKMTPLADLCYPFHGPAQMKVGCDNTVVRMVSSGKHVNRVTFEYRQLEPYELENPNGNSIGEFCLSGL

[3] = target: T1, Corticotropin-releasing factor receptor 2/Corticotropin-releasing factor-binding protein; experiment: activators of CRF receptor 2 with binding protein – uHTS hits, confirmation (AID 602473); assay type: functional; conditions: read-out: EC50_Mean
[4] = blockers of CRF-binding protein–CRF-R2 complex – cell-based, uHTS hits, 384-well, dose response (AID 651639); assay type: functional, Homo sapiens; conditions: read-out: IC50_Mean
[5] = target: Protein disulfide-isomerase (Homo sapiens, UniProt P07237); experiment: inhibition of PDI-driven insulin aggregation – biochemical, turbidity, absorbance, cherry-picked samples, dose response (AID 602350); assay type: functional
Chain of Protein disulfide-isomerase (P07237 whole entry): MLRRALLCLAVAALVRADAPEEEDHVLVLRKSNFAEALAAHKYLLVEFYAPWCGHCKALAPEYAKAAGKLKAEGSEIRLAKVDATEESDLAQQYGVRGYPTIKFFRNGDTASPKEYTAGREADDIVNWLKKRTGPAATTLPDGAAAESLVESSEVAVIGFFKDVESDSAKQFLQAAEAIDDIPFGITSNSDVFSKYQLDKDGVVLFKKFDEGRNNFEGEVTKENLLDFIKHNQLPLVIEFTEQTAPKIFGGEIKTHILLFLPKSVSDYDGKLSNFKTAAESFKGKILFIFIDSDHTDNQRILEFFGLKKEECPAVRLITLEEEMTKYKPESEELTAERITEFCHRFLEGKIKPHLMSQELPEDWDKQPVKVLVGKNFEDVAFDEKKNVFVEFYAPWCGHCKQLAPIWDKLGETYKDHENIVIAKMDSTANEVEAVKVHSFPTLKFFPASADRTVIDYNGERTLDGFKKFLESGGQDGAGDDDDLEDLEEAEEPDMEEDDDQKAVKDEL

[6] = target: T2, Aryl hydrocarbon receptor (Homo sapiens, UniProt P35869); conditions: Potency;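 further: confirmatory quantitative high-throughput screen measuring activation of the AhR signaling pathway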
T2 sequence (P35869 whole entry): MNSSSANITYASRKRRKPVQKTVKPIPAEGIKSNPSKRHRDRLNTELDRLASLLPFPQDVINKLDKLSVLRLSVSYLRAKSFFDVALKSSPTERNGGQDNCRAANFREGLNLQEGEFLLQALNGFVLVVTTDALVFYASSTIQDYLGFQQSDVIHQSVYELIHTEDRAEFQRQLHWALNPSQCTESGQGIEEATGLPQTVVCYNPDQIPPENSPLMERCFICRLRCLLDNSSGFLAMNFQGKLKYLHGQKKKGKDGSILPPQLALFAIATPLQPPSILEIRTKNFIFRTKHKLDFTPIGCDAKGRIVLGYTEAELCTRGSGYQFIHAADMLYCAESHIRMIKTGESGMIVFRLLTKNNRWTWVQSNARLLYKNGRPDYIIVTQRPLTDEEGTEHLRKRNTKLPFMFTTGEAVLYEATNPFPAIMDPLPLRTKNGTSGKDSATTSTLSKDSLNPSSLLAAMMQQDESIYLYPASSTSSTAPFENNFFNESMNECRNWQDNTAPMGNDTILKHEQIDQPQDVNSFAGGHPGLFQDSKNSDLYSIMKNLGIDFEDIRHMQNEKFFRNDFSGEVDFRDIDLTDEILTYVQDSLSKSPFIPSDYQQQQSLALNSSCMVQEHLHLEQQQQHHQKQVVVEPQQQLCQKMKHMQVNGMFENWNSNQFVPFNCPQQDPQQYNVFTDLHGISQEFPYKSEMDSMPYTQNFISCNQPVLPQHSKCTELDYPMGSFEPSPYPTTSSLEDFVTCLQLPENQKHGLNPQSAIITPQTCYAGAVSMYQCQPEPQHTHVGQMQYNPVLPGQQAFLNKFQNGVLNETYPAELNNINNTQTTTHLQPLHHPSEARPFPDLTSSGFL

[7] = target: Dual specificity tyrosine-phosphorylation-regulated kinase 1A (Rattus norvegicus, UniProt Q63470); assay type: biochemical, Homo sapiens
[8] = target: Cytochrome P450 3A4 (Homo sapiens, UniProt P08684); conditions: Potency;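 further: confirmatory qHTS run detecting inhibitors and substrates of CYP3A4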
Chain of Cytochrome P450 3A4 (P08684 whole entry): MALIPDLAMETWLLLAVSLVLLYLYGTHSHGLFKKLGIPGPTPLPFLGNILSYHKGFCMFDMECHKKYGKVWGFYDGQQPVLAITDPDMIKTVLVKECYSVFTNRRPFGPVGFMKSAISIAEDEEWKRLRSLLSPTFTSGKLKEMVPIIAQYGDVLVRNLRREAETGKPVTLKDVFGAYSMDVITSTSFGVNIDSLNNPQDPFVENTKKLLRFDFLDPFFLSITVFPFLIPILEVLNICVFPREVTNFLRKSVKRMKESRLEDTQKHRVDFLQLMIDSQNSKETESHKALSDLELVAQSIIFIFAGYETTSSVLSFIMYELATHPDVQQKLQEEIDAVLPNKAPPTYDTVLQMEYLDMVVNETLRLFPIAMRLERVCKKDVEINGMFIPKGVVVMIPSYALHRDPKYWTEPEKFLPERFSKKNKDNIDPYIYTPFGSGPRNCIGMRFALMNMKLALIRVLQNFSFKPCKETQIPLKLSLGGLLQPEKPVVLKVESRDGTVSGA

[9] = target: Tyrosine-protein phosphatase non-receptor type 11 (Homo sapiens, UniProt Q06124); experiment: PTPN11 enzyme inhibitors – biochemical, selectivity assay for STEP inhibitor project, dose response (AID 602367); assay type: functional; conditions: read-out: IC50_Mean
Chain of Tyrosine-protein phosphatase non-receptor type 11 (Q06124 whole entry): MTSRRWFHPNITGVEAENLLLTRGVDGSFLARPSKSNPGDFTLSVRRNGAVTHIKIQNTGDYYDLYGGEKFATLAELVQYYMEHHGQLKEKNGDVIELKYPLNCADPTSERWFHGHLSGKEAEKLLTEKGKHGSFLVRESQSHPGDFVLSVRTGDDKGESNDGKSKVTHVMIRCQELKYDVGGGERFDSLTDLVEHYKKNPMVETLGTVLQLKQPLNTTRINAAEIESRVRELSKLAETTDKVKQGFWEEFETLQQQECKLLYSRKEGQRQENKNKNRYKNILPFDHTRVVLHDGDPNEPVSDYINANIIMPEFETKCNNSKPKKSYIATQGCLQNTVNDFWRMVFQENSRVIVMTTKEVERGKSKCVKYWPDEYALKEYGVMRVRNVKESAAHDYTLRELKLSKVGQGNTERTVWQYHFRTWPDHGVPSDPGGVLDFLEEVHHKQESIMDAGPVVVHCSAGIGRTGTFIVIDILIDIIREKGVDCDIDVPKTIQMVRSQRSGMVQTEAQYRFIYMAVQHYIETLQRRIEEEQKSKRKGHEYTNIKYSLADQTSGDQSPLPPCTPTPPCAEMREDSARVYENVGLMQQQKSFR

[10] = target: Tyrosine-protein phosphatase non-receptor type 5 (Homo sapiens, UniProt P54829); experiment: PTPN5 enzyme inhibition – biochemical, fluorescence intensity, uHTS hits, confirmation (AID 602372); assay type: functional; conditions: read-out: IC50_Mean
Chain of Tyrosine-protein phosphatase non-receptor type 5 (P54829 whole entry): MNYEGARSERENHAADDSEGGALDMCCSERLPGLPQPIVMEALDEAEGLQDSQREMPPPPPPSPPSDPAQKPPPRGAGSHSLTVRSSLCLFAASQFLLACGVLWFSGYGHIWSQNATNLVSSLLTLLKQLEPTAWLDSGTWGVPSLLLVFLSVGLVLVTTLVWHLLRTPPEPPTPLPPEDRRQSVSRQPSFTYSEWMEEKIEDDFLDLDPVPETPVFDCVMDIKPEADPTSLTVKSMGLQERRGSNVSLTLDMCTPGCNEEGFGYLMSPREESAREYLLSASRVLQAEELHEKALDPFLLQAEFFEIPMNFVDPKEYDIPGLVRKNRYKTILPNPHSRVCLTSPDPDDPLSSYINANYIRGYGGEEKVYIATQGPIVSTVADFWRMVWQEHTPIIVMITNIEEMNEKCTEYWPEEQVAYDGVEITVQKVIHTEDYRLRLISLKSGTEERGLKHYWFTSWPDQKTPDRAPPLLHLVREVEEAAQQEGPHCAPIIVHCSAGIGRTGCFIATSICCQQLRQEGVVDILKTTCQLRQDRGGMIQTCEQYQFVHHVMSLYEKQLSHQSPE

[11] = target: Dual specificity protein phosphatase 3 (Homo sapiens, UniProt P51452); experiment: VHR phosphatase inhibition, dose response, selectivity assay for STEP inhibitor project, biochemical (AID 602374); assay type: functional; conditions: read-out: IC50_Mean
Chain of Dual specificity protein phosphatase 3 (P51452 whole entry): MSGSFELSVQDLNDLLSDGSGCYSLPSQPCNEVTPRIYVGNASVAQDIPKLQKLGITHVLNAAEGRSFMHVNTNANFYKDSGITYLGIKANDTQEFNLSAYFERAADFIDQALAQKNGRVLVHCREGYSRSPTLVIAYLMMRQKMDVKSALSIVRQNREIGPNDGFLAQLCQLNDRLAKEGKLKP

[12] = target: T3, Low molecular weight phosphotyrosine protein phosphatase (Homo sapiens, UniProt P24666); assay type: functional; conditions: read-out: IC50_Mean;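 further: Dose-response confirmation assay measuring inhibition of LMPTP enzyme activity by fluorescence intensity read-out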
T3 sequence (P24666 whole entry): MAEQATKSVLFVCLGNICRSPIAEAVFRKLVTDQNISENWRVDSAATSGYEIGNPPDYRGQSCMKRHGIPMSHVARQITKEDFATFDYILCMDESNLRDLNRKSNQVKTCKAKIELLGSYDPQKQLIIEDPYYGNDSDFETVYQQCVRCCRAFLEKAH

[13] = target: T4, Apoptotic protease-activating factor 1 (Homo sapiens, UniProt O14727); experiment: SAR analysis of small molecule Activators of Apaf-1 in a Fluorescent assay.; assay type: functional; conditions: read-out: EC50_Mean
T4 sequence (O14727 whole entry): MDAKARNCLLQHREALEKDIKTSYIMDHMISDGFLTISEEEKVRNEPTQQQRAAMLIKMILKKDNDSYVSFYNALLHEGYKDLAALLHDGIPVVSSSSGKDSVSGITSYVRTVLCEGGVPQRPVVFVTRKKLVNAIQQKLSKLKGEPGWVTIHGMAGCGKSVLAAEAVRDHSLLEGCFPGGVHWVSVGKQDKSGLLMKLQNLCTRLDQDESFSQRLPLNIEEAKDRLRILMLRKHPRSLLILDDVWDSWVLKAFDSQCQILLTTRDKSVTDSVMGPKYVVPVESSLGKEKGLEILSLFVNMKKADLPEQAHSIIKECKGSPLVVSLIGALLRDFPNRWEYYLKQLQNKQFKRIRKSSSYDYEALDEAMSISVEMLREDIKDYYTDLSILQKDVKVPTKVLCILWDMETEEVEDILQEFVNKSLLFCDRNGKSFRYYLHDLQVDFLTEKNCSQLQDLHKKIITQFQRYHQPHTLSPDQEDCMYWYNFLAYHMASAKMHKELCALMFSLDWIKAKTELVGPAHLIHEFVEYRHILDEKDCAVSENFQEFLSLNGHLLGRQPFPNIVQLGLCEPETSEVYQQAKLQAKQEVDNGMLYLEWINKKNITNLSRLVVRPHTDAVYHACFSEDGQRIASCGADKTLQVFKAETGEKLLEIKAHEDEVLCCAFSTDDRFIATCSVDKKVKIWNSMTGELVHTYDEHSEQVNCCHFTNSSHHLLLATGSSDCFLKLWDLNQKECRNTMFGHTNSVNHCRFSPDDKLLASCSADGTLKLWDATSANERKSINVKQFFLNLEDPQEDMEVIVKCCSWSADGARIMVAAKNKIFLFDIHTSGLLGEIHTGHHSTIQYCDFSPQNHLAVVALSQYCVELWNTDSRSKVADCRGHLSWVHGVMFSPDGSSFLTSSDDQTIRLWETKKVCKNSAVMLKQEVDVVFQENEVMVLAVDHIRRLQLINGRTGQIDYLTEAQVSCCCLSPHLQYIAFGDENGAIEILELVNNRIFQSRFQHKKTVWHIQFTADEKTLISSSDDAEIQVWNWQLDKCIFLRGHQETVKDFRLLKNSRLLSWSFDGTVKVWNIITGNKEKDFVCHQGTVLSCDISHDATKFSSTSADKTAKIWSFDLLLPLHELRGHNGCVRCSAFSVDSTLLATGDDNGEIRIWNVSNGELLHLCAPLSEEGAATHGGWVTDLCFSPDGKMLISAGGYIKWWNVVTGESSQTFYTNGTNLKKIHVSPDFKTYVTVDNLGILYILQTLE

[14] = target: T4, Apoptotic protease-activating factor 1; assay type: functional
[15] = target: T5, Oxysterols receptor LXR-beta (Homo sapiens, UniProt P55055); assay type: functional, cell-based;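 further: Cell-based luminescence dose-response assay of agonist activity at LXR, run as a confirmatory counterscreen to a daf-12 agonist screen; HEK293 cells with Gal4-LXR fusion and GAL4-driven luciferase reporter; agonist potency from rising luciferase signal of a Gal4-LXR reporter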
T5 sequence (P55055 whole entry): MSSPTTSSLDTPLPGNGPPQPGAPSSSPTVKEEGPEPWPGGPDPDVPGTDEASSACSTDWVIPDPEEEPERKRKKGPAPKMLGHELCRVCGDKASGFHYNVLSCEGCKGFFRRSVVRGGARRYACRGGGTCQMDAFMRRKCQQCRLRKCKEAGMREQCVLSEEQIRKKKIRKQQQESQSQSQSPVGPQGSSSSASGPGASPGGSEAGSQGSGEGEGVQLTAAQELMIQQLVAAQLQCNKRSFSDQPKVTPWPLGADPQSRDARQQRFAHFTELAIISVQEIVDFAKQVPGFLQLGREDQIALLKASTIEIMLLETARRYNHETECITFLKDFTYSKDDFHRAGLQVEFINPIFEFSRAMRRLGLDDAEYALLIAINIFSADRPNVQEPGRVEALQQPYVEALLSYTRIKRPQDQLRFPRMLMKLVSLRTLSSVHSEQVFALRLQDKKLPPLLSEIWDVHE

[16] = cells

Chain of Ras and Rab interactor 1/Tyrosine-protein kinase ABL1 (P00519 whole entry): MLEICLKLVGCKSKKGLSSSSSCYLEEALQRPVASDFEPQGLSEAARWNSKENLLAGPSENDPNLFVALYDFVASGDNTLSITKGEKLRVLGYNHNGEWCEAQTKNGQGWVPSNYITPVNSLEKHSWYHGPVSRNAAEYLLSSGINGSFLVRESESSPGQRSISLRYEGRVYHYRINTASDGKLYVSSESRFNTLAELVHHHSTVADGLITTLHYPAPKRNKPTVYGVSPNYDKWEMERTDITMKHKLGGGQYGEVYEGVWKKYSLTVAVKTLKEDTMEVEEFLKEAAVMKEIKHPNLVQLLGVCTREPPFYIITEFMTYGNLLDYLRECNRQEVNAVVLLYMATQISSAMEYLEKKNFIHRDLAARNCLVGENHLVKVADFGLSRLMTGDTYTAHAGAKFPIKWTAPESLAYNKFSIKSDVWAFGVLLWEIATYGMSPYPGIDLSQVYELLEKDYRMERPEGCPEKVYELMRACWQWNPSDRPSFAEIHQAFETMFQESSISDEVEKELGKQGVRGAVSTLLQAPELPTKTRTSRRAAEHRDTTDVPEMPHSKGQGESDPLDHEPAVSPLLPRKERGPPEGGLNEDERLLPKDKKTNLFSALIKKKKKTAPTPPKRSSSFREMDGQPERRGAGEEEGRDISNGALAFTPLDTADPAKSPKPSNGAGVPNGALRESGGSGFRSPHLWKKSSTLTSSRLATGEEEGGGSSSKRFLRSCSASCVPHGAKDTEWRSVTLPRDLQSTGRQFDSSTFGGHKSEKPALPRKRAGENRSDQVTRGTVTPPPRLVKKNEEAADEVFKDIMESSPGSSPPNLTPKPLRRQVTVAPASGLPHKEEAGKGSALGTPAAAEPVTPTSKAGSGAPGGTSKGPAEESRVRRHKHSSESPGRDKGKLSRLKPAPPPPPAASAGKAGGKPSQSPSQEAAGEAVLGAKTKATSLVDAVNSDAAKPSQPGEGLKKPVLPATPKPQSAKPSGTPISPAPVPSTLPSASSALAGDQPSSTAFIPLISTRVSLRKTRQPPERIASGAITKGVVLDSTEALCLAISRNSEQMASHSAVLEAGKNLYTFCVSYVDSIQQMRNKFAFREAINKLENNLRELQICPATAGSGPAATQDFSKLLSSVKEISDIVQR
Chain of Ras and Rab interactor 1/Tyrosine-protein kinase ABL1 (Q13671 whole entry): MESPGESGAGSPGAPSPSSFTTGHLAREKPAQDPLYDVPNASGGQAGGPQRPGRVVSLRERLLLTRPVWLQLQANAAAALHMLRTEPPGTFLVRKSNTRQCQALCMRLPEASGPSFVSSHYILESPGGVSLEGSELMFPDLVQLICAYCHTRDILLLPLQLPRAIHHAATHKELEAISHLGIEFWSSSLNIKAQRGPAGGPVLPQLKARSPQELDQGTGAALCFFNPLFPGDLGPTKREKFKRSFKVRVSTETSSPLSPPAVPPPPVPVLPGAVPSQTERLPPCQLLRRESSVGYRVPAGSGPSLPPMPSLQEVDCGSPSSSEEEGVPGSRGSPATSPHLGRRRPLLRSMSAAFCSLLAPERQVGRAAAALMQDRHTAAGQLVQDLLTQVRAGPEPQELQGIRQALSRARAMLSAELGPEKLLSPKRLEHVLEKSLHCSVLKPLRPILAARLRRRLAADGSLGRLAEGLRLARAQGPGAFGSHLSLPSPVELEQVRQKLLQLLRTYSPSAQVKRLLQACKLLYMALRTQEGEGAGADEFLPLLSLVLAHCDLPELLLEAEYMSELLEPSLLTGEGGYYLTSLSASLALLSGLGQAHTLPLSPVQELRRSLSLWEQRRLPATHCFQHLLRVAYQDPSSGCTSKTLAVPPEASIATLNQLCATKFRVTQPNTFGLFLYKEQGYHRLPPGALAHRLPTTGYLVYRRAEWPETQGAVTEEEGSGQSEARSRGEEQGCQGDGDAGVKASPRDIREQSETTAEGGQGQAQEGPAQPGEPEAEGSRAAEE

In the case of `COc1ccccc1CNC(=O)CSc1nnc2ccc(-c3cccnc3)nn12`, the IC50 [1] is reported as > 73.5 µM (inactive).

With `CC1CC(C)CN(C(=O)CSc2nc(Cc3cccs3)nc3ccccc23)C1` (centres undefined) the IC50 [2] was 6.34 µM (active), the EC50 [3] was > 53 µM (inactive) and the IC50 [4] was 5.99 µM (active).

With `CCOC(=O)Oc1ccc2c(=O)c(Oc3cccc(C)c3)coc2c1` the IC50 [2] was 0.61 µM (active), the EC50 [3] was > 53 µM (inactive) and the IC50 [4] was > 20 µM (inactive).

For `C[C@@H]1O[C@@H](O[C@H]2[C@H](O)[C@@H](O)[C@H](Oc3c(-c4ccc(O)cc4)oc4cc(O)cc(O)c4c3=O)O[C@@H]2CO)[C@H](O)[C@H](O)[C@H]1O`, the AC50 [5] was 6.92 µM (active).

In the case of `CC(C)OC(=O)Cc1ccccc1`, the AC50 [6] is reported as 35.5 µM (inconclusive).

For `C[C@@H]1O[C@@H](OC[C@H]2O[C@@H](Oc3c(-c4ccc(O)c(O)c4)oc4cc(O)cc(O)c4c3=O)[C@H](O)[C@@H](O)[C@@H]2O)[C@H](O)[C@H](O)[C@H]1O`, the AC50 [7] was 4.08 µM (active), the IC50 [1] was > 73.5 µM (inactive) and the AC50 [5] was 7.62 µM (active).

In the case of `Nc1ccc(Cl)c(Cl)c1`, the AC50 [8] is reported as 25.1 µM (inconclusive) and the AC50 [6] is reported as 56.2 µM (inconclusive).

For `Cc1ccc(S(=O)(=O)N2CCCCC2)cc1NC(=O)c1ccc(=O)[nH]c1`, the IC50 [9] was 4.88 µM (active), the IC50 [10] was 29.6 µM (inactive) and the IC50 [11] was 3.08 µM (active). For the same compound, the IC50 [12] was 37.1 µM (inactive).

In the case of `O=C(Nc1ccc(F)cc1F)C1CC(c2ccc(F)cc2)=NO1` (centres undefined), the EC50 [13] is reported as > 100 µM (inactive).

For `CN1CCC(Oc2ccccc2N2CC(C(=O)O)CC2=O)CC1` (centres undefined), the EC50 [13] was > 100 µM (inactive).

With `O=[N+]([O-])c1ccccc1-c1ccc(C(=S)N2CCCC2)o1` the IC50 [14] was 49.8 µM (active), the EC50 [15] was > 67.5 µM (inactive) and the EC50 [16] was > 67.5 µM (inactive).

In the case of `O=c1c(O[C@@H]2O[C@H](CO)[C@@H](O)[C@H](O)[C@H]2O)c(-c2ccc(O)cc2)oc2cc(O)cc(O)c12` [ASTRAGALIN], the AC50 [5] is reported as 19 µM (active).
